Data from publication PMC10291552, “Computational Design, Synthesis, and Biological Evaluation of Diimidazole Analogues Endowed with Dual PCSK9/HMG-CoAR-Inhibiting Activity” (Journal of Medicinal Chemistry, 2023).

What was measured:
[1] = system: platelet-rich plasma; test: Platelet aggregation by light transmission aggregometry (PCSK9-potentiated, epinephrine-induced); type: cell-based, human; conditions: 10 nM preincubated with PCSK9 5 μg/mL; epinephrine 0.16 μM; n = 5 healthy donors
Protocol: Whole blood (WB) was drawn with a 19-gauge needle without venous stasis into citrate (1/10 volume of 0.129 M sodium citrate), discarding the first 4 mL. Platelet-rich plasma (PRP) was obtained by centrifuging whole blood for 10 min at 100g without breaks at room temperature as previously described.[44]
Platelet function was assessed by light transmission aggregometry using PAP-8 aggregometer (BioData). Lag time and area under the curve (AUC) were used as the main parameters describing the kinetic of platelet aggregation as previously described.[3] Briefly, PRP was preincubated with PCSK9 (5 μg/mL, 2 min at 37 °C) followed by epinephrine (0.16 μM) stimulation. To test the effect of Dim16 on PCSK9-dependent platelet aggregation, PCSK9 was preincubated with Dim16 (10 nM) for 15 min at room temperature and then added to PRP.

[2] = biological target: T1, PCSK9/LDLR (Homo sapiens, UniProt Q8NBP7); test: In vitro PCSK9-LDLR binding assay (CircuLex/CycLex kit); conditions: for IC50: mean ± SD, three independent experiments, Hill slope fixed at −1
T1 construct: purchased CircuLex (CycLex Co., Nagano, Japan)
Protocol: Diimidazole analogues (0.1–1 × 10^6 nM) were tested using the in vitro PCSK9-LDLR binding assay (CycLex Co., Nagano, Japan) following the manufacturer’s instructions and with the conditions already optimized.[15] Briefly, the plates were pre-coated with a recombinant LDLR-AB domain containing the binding site of PCSK9. Before starting the assay, the tested analogues and/or the vehicle in DMSO were sonicated at 37 °C, diluted in the reaction buffer, and added in microcentrifuge tubes. Afterward, the reaction mixtures were added in each well of the microplate, and the reaction was started by adding His-tagged PCSK9 solution (3 μL). The microplate was allowed to incubate for 2 h at room-temperature (RT) shaking at 300 rpm on an orbital microplate shaker. Subsequently, the wells were washed 4 times with the wash buffer. After the last wash, the biotinylated anti-His-tag monoclonal antibody (100 μL) was added and incubated at RT for 1 h shaking at 300 rpm. After incubation, the wells were washed 4 times with wash buffer. After the last wash, 100 μL of HRP-conjugated streptavidin were added, and the plate was incubated for 20 min at RT. After incubation, the wells were washed 4 times with wash buffer. Finally, the substrate reagent (tetra-methylbenzidine) was added, and the plate was incubated for 10 min at RT shaking at ca. 300 rpm. The reaction was stopped with 2.0 M sulfuric acid, and the absorbance at 450 nm was measured using a Synergy H1 fluorescent plate reader (Winooski, VT, USA).
All the data sets were checked for normal distribution by D’Agostino and Pearson tests. Since they are all normally disturbed with p values of […], we proceeded with statistical analyses of one-way ANOVA followed by Tukey’s post hoc test using Graphpad Prism 9 (San Diego, CA, USA). Values were reported as means ± s.d.; p values of <0.05 were considered to be significant. The IC50 values of samples inhibiting PCSK9-LDLR binding were evaluated by using the log(inhibitor) vs response model of GraphPad Prism 9 (San Diego, CA, USA). This model assumes that the dose–response curves has a standard slope, equal to a Hill slope (or slope factor) of −1.0. This is the slope expected when a ligand binds to a receptor following the law of mass action and is the slope expected of a dose–response curve when the second messenger created by receptor stimulation binds to its receptor by the law of mass action (https://graphpad.com/guides/prism/latest/curvefitting/reg_dr_inhibit.htm).

T1 sequence (Q8NBP7 153-692): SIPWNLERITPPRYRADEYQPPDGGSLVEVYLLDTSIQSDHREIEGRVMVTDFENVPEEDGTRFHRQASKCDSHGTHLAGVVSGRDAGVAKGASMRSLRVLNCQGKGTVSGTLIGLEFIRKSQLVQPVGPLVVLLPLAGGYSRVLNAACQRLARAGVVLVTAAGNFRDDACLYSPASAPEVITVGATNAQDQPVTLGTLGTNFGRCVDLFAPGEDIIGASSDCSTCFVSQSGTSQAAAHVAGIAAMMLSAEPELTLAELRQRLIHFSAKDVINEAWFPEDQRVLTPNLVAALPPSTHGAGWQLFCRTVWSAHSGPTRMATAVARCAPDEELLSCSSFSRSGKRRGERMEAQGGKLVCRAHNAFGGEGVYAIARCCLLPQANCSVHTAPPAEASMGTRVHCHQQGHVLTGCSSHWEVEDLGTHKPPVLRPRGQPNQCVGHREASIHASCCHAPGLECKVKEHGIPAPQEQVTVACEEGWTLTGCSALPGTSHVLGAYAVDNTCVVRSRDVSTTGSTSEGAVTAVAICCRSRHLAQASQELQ
T1 sequence (Q8NBP7 31-152 limits assumed): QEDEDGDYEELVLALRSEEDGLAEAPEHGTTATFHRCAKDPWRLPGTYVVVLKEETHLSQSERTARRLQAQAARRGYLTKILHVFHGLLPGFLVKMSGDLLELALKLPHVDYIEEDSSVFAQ

Compound | effect on PCSK9 potentiation of platelet aggregation (lag time, AUC) [1] | IC50 [2] [nM] | PCSK9/LDLR PPI, fold more active than P5 ([2]; ratio versus P5)
CNCCCCCn1c(-c2ncc(-c3ccc4ccccc4c3)n2CCCC(C)(C)C)cnc1I [Dim16, 5-(1-(4,4-Dimethylpentyl)-2′-iodo-5-(naphthalen-2-yl)-1H,3′H-[2,4′-biimidazol]-3′-yl)-N-methylpentan-1-amine] | significantly prevented | 0.8 ± 1 | 2000
C#Cc1ncc(-c2ncc(-c3ccc4ccccc4c3)n2CCCC(C)(C)C)n1CCCCCNC [Dim3, 5-(1-(4,4-Dimethylpentyl)-2′-ethynyl-5-(naphthalen-2-yl)-1H,3′H-[2,4′-biimidazol]-3′-yl)-N-methylpentan-1-amine] |  | 9 ± 10 | 
